From US8048881B2, “Pyrimidine derivatives and their use as P2Y12 receptor antagonists” (Actelion Pharmaceuticals Ltd., priority 2005, dated 2011)
pIC50: −log10 of the molar value.

Molecular target: T1, human P2Y12 receptor (Homo sapiens, UniProt Q9H244)
T1 construct: expressed in transfected cells; host or cells: Chinese Hamster Ovary (CHO) cells
Assay: P2Y12 receptor binding assay
Details: CHO cells with recombinant expression of the human P2Y12 receptor; tritium-labeled 2-methyl-S-ADP; incubation at room temperature for 2 hours
Experimental: P2Y12 Receptor Binding Assay
Chinese Hamster Ovary (CHO) cells with recombinant expression of the human P2Y12 receptor were cultured in 24 well cell-culture plates. Cells were washed three times with binding buffer (50 mM Tris pH 7.4, 100 mM NaCl, 1 mM EDTA, 0.5% BSA). The cells were then incubated with 0.5 ml per well binding buffer containing tritium-labeled 2-methyl-thio-adenosine 5′-diphosphate (2-methyl-S-ADP) (between 100'000 and 300'000 dpm per well) and various concentrations of test compounds. After incubation at room temperature for 2 hours, cells were washed three times with binding buffer. Then, cells were solubilized by addition of 0.5 ml solubilization buffer (SDS, NaOH, EDTA). The content of each well was then transferred into beta-counter vials and 2.0 ml of Ultima Gold Scintillation liquid was added.

T1 sequence (Q9H244 whole entry): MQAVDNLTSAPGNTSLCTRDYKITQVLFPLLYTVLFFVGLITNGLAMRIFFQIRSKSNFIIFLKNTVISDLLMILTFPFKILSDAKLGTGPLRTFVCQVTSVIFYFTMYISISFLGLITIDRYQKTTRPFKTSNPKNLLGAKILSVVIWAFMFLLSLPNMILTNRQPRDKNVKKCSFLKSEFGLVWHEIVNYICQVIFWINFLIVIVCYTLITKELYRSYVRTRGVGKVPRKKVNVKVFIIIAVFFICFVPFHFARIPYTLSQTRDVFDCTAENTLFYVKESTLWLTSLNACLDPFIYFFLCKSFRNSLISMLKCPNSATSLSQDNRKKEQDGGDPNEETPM

SMILES	pIC50
CCOC(=O)N1CCN(C(=O)[C@H](CCC(=O)O)NC(=O)c2cc(CCO)nc(-c3ccccc3)n2)CC1 [Example 408, 4-((S)-4-carboxy-2-{[6-(2-hydroxy-ethyl)-2-phenyl-pyrimidine-4-carbonyl]-amino}-butyryl)-piperazine-1-carboxylic acid ethyl ester]	6.68
CCOC(=O)N1CCN(C(=O)[C@H](CCC(=O)O)NC(=O)c2cc(-c3ccc[n+]([O-])c3)nc(-c3ccccc3)n2)CC1 [Example 418, 4-((S)-4-carboxy-2-{[6-(1-oxy-pyridin-3-yl)-2-phenyl-pyrimidine-4-carbonyl]-amino}-butyryl)-piperazine-1-carboxylic acid ethyl ester]	6.89
CCOC(=O)N1CCN(C(=O)[C@H](CCC(=O)O)NC(=O)c2cc(/C=C/CCO)nc(-c3ccccc3)n2)CC1 [Example 421, 4-((S)-4-carboxy-2-{[6-((E)-4-hydroxy-but-1-enyl)-2-phenyl-pyrimidine-4-carbonyl]-amino}-butyryl)-piperazine-1-carboxylic acid ethyl ester]	7.12
CCOCc1cc(C(=O)N[C@@H](CCC(=O)O)C(=O)N2CCN(C(=O)OCC)CC2)nc(-c2ccccc2)n1 [Example 430, 4-{(S)-4-carboxy-2-[(6-ethoxymethyl-2-phenyl-pyrimidine-4-carbonyl)-amino]-butyryl}-piperazine-1-carboxylic acid ethyl ester]	6.73
CCOC(=O)N1CCN(C(=O)[C@H](CCC(=O)O)NC(=O)c2cc(C(F)(F)F)nc(-c3ccccc3)n2)CC1 [Example 431, 4-{(S)-4-carboxy-2-[(2-phenyl-6-trifluoromethyl-pyrimidine-4-carbonyl)-amino]-butyryl}-piperazine-1-carboxylic acid ethyl ester]	6.77
CC(C)(C)NC(=O)N1CCN(C(=O)[C@H](CCC(=O)O)NC(=O)c2cc(OC3CCCC3)nc(-c3ccccc3)n2)CC1 [Example 435, (S)-5-(4-tert-butylcarbamoyl-piperazin-1-yl)-4-[(6-cyclopentyloxy-2-phenyl-pyrimidine-4-carbonyl)-amino]-5-oxo-pentanoic acid]	7.03
